Test results reported in article PMC3254785 (2011).

Tests used:
[1] = molecular target: T1, soluble guanylyl cyclase (sGC) (Homo sapiens, UniProt Q02153); assay: anaerobic; type: binding
T1 sequence (Q02153 1-619): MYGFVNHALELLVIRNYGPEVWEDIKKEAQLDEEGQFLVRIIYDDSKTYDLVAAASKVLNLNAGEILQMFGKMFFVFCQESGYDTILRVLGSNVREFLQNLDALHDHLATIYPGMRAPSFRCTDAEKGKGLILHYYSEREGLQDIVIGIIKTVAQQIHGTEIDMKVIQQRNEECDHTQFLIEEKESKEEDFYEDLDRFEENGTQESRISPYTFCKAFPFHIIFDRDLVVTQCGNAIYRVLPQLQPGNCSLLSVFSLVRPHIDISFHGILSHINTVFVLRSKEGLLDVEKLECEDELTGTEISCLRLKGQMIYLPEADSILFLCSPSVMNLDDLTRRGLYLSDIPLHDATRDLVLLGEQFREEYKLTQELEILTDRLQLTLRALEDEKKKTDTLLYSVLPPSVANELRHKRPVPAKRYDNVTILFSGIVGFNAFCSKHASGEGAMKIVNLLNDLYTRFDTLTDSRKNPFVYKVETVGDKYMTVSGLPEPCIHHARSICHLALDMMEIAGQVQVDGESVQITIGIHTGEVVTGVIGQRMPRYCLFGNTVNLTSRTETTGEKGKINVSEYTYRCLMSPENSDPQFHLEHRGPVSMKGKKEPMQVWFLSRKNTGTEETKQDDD
T1 sequence (Q02108 1-690 partner): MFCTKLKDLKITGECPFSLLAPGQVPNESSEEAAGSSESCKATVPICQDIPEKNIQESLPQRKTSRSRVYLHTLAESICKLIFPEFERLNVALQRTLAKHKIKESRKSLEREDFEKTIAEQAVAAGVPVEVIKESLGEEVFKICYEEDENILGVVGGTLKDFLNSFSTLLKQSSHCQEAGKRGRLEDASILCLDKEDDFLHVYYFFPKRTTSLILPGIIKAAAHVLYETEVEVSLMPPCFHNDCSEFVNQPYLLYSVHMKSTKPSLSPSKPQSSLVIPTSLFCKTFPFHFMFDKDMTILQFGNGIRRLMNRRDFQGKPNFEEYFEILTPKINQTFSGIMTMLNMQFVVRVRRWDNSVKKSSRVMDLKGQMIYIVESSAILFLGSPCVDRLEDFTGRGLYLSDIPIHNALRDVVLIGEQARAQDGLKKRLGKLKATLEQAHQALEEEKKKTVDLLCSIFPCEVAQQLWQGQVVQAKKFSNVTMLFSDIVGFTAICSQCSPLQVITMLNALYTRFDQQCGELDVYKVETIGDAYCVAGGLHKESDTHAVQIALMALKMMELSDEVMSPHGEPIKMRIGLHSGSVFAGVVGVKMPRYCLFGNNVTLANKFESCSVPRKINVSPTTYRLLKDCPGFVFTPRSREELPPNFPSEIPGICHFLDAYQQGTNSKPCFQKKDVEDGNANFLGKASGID

[2] = molecular target: Ns H-NOX (Nostoc sp. PCC 7120 = FACHB-418, UniProt A0ACD6B960); assay: biochemical
Chain of Ns H-NOX (A0ACD6B960 1-189): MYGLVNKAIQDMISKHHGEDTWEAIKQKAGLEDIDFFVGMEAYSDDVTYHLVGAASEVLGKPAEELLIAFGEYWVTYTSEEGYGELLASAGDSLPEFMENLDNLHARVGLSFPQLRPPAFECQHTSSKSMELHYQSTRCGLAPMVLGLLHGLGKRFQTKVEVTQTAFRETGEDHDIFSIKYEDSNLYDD

Structure (SMILES)	Kd [1] [nM]	Kd [2] [mM]
[N]=O [NO]	54	
O=O [O2]		13
